Source: patent publication US20110166195A1, “METHOD FOR THE FORMATION OF MEGAMITOCHONDRIA” (priority 2008, published 2011)
Entries after “also recorded” stand apart in the source; their conditions may differ. Where a name gives a salt, the structure may show the parent alone.

Assays:
[1] = tested on: 143B.TK−K7gm cells with megamitochondria; assay: Back-formation of megamitochondria after exchange of acidic medium in drug-treated cells; type: cell-based, Human; details: fresh medium also with drug; for back-formation of megamitochondria (mitochondrial morphology after medium exchange): 10 μM CCCP, 10 μM valinomycin or 1 μM nigericin for 30 minutes, analysed 60 minutes after medium exchange; for back-formation of megamitochondria: 6 μM nocodazol or 2.4 mM cytochalasin B for 3 hours, observed one and three hours after medium exchange
Protocol: (C) 143B.TK^−K7gm cells with megamitochondria were incubated with 10 μM CCCP (C A1, B1), 10 μM valinomycin (C A2, B2) or 1 μM nigericin (C A3, B3) for 30 minutes. 60 Minutes after medium exchange (ME) the mitochondrial morphology was analysed. Untreated controls are shown in A A4 and C A4, B4. Calibration marks correspond to 10 μm.
(B) The influence of the actin cytoskeleton on the back-formation of megamitochondria in 143B.TK^−K7gm cells was tested by treatment with 2.4 μM cytochalasin B (A1, A2, C1, D1) or an an equivalent amount of solvent as control (B1, B2, C2, D2) for 3 hours. Mitochondrial morphology was analyzed one (C1, C2) or three hours (D1, D2) after medium exchange. Staining of action cytoskeleton was carried out by Alexa Fluor […] phalloidin in fixed cells (A2, B2).
143B.TK^−K7gm cells with megamitochondria were incubated for 3 hours with 6 μM nocodazol (A1, A2, C1, D1) or as control with an equivalent amount solvent (B1, B2, C2, D2). The analysis of mitochondrial changes in structure were carried out 1 hour (C1, C2) or 3 hours (D1, D2) after the exchange of acidic medium. Arrow heads indicate abnormal ring shaped mitochondrial structures persisting for at least 3 hours. Calibration bars correspond to 10 μm.
(§1) Drugs (final concentrations 6-10 μM nocodazol, 2.4-4 μM cytochalasin B, 10 μM CCCP, 10 μM valinomycin and 1 μM nigericin) were added to standard culture medium at different stages of megamitochondria development.
(§2) To avoid a cross talk in excitation of multiple stained compounds always a sequential scanning mode was used in confocal microscopy.
To investigate the influence of the different chemicals on the back-formation of megamitochondria the cells were incubated with indicated concentrations of CCCP, valinomycin and nigericin for 30 minutes (FIG. 4C).
The influence of tubulin and actin cytoskeleton inhibition on back-formation of megamitochondria was performed with 143B.TK^− K7 gm cells with megamitochondria 3 hours after incubating the cells with 6 μM nocodazol or […] cytochalasin B. After changing the used acidic medium and its replacement by fresh medium also completed by the drugs structural changes of mitochondria were observed one hour and three hours later.

143B.TK−K7gm cells [2] = assay: Formation of megamitochondria in drug-treated cells (fluorescence/confocal microscopy of EGFP-Mito); type: cell-based, Human
Protocol: (A) 24 h after seeding 143B.TK^−K7gm cells were incubated with 10 μM CCCP (A A1), 10 μM valinomycin (A A2, B) or 1 μM nigericin (A A3) for 18 h.
(§3) (A) 143B.TK^−K7gm cells stained with EGFP-Mito were treated with 4 μM cytochalasin B (A1, A2, B1, B2) at different cultivation times for 9-15 hours or an equivalent amount of solvent as control (A3, A4, B3, B4). Staining of actin cytoskeleton was achieved by Alexa Fluor […] phalloidin in fixed cells (A2, B2, A4, B4). Arrow heads indicate round areas in the cytoplasm observable by actin staining after 62 hours cultivation time.
143B.TK^−K7gm cells were treated with 10 μM nocodazol at different cultivation times for 9-15 hours (A1, A2, B1, B2) or as control with an equivalent amount solvent (A3, A4, B3, B4). The morphology of mitochondria is shown by in vivo EGFP-Mito-staining in the images A1, B1, C1, A3, B3, C3. The staining of tubulin cytoskeleton was performed by an antibody against alpha-tubulin and a Cy3-coupled secondary antibody in fixed cells (A2, B2, A4, B4). Calibration bars correspond to 10 μm.
as §1, §2
To investigate the influence of the mitochondrial membrane potential on the formation and back formation of the megamitochondria 143B.TK^−K7gm cells were incubated with 10 μM CCCP (H^+ ionophore), 10 μM valinomycin (K^+ selective ionophore) and 1 μM nigericin (selective electron neutral K^+/H^+ exchange) (FIG. 4).
(§4) To observe the influence of the tubulin or actin cytoskeleton, respectively, on the formation of megamitochondria 143B.TK^−K7 gm cells were incubated with 10 μM nocodazol or […] cytochalasin B for 9-15 hours.

143B.TK−K7 cells = assay: Mitochondrial membrane potential by JC-1 staining (confocal microscopy); type: cell-based, Human; details: 10 μM CCCP for 30 minutes before JC-1; 24 and 62 hours cultivation time
Protocol: Documentation at 24 hours (A1-A3, B1-B3) and 62 hours (C1-C3, D1-D3) cultivation time by JC-1-staining. The red fluorescence of J-aggregates (A1, B1, C1, D1) as well as the green monomer form (A2, B2, C2, D2) were analysed simultaneously by excitation wavelength of 488 nm. Images A3, B3, C3, D3 show overlays. Calibration bars correspond to 10 μm.
To measure differences in mitochondrial membrane potential between the various stages of megamitochondria formation and control cells the dual emission of the potentiometric dye JC-1 was observed. The cells either were incubated directly with 3 μM JC-1 diluted in the standard culture medium and filtered once with 0.2 μm syringe filter for 30 min at 37° C. or first treated with CCCP (final concentration 10 μM) for 30 min for the comparison of cells without membrane potential. The cells were viewed in vivo with the inverse confocal laser scanning microscope (simultaneous excitation of red and green fluorescence by 488 nm wavelength) to observe local differences in the mitochondrial membrane potential.
To determine the mitochondrial membrane potential during the formation of megamitochondria 143B.TK^−K7 cells were either directly stained with JC-1 […] or incubated with […] CCCP for 30 minutes before. […]

143B.TK−K7gm cells [3] = assay: Induction of megamitochondria by changes of culture medium; type: cell-based, Human; details: medium with HCl or lactic acid (pH 6.7-5.3) or 30-180 mM sodium lactate (pH 7.4 maintained); one hour
Protocol: (§5) The induction of megamitochondria formation was done by the transfer of acidic medium from 143B.TK^− K7 ρ^0 cells and by an artificial acidification of fresh medium with lactic acid, pH 6.0-6.3. Additional changes of culture medium were performed by an acidification of the medium with HCl, addition of 30-180 mM sodium lactate and 1.3-2.0 mM NaOH.
(§6) To test whether megamitochondria can be induced by extrinsic changes of pH value or lactic acid concentration in the culture medium 143B.TK^−K7gm, 143B.TK^−gm and HeLa were incubated with medium complemented with HCl and lactic acid, respectively (pH 6.7-5.3). Additionally, the influence of high concentrations of sodium lactate (30-180 mM) on the megamitochondria formation was determined without changing the pH. A pH value of 6.7-6.8 and a lactate concentration of 30 mM corresponds to the measured values in the analysed cultivation medium of 143B.TK^−K7 cells. Incubation of cells was carried out for one hour with subsequent analyses of mitochondrial morphology in vivo.

[4] = tested on: 143B.TK−K7gm cells with megamitochondria; assay: Back-formation of megamitochondria by changes of culture medium; type: cell-based, Human; details: one hour
Protocol: Similar experiments were carried out to investigate the back-formation of megamitochondria (FIG. 9). To this end, 143B.TK^−K7 gm cells with megamitochondria were incubated in medium complemented with different additions. Changes of pH value were reached by the addition of 0.04-0.2 mM NaOH into the used culture medium as well as by the addition of HCl and lactic acid, respectively, of values 7.0-5.6 in fresh culture medium. Moreover, the influence of high concentrations of sodium lactate on the back-formation of megamitochondria was analysed by adding 20-210 mM sodium lactate, pH 7.4 into fresh medium without changing the pH value. Treatment of cells with different media was performed for one hour, thereafter the mitochondrial morphology was analysed by fluorescence microscopy.

143B.TK−gm cells = assay: Induction of megamitochondria by changes of culture medium; type: cell-based, Human; details: medium with HCl or lactic acid (pH 6.7-5.3) or 30-180 mM sodium lactate (pH 7.4 maintained); one hour
Protocol: as §5, §6

HeLa cells = assay: as above; type: cell-based; details: medium with HCl or lactic acid (pH 6.7-5.3) or 30-180 mM sodium lactate (pH 7.4 maintained); one hour
Protocol: as §5, §6

actin cytoskeleton = assay: Staining of actin cytoskeleton by phalloidin in fixed cells; type: cell-based, Human; details: 4 mM cytochalasin B for 9-15 hours, 143B.TK−K7gm cells
Protocol: as §3
For detection of the actin cytoskeleton cells on cover slips treated as indicated were fixed with 3.7% formaldehyde in PBS for 10 min at room temperature and after three washes in PBS for 5 min permeabilized with 0.1% Triton X-100 in PBS for 5 min. After additional washing steps with PBS (5 min) cells were blocked with 1% BSA in PBS for 30 min at room temperature and incubated with 1 unit (5 μl) Alexa Fluor 546 Phalloidin in 1% BSA in PBS for 20 min at room temperature. After washing the cells three times with PBS for 7 min, the cover slips were mounted with Mowiol and analysed with the confocal microscope.
as §4

tubulin polymerisation = assay: Immunocytochemical staining of tubulin cytoskeleton with antibody against alpha-tubulin; type: cell-based, Human; details: 10 μM nocodazol for 9-15 hours, 143B.TK−K7gm cells
Protocol: 143B.TK^−K7gm cells were treated with 10 μM nocodazol at different cultivation times for 9-15 hours (A1, A2, B1, B2) or as control with an equivalent amount solvent (A3, A4, B3, B4). […] The staining of tubulin cytoskeleton was performed by an antibody against alpha-tubulin and a Cy3-coupled secondary antibody in fixed cells (A2, B2, A4, B4).
Cells grown on cover slips were treated as indicated, fixed with methanol (−20° C.) for 5 min and permeabilized with 0.2% Triton X-100 in PBS for 5 min at room temperature. After washing three times with PBS (5 min), the blocking reaction was performed with 100 mM glycine in PBS for 10 min following 3% BSA in PBS for 30 min at room temperature.
Subsequently cover slips were incubated with mouse anti-alpha tubulin polyclonal primary antibody diluted 1:50 in 1% BSA in PBS at 4° C. over night. After washing the cells three times with PBS (5 min), the cover slips were incubated with Cy3-conjugated goat secondary antibody in 10% goat serum in PBS for 1 h at room temperature. The cells were washed three times with PBS (7 min) prior to mounting in Mowiol and analysed by fluorescence microscopy.

[5] = 10 μM CCCP, 10 μM valinomycin or 1 μM nigericin for 18 h, 24 h after seeding
[6] = 10 μM nocodazol or 4 mM cytochalasin B for 9-15 hours

SMILES	back-formation of megamitochondria (mitochondrial morphology after medium exchange) [1]	formation of megamitochondria (143B.TK−K7gm cells [2]; [5])	induction of megamitochondria (143B.TK−K7gm cells [3])	induction of megamitochondria (143B.TK−gm cells)	induction of megamitochondria (HeLa cells)	other results
N#CC(C#N)=NNc1cccc(Cl)c1 [CCCP]	comparable to the control cells	inhibited				mitochondrial membrane potential (JC-1 red/green fluorescence) (143B.TK−K7 cells): the red fluorescence was clearly less distinct
Cl [HCl]			not possible	not possible	not possible	back-formation of megamitochondria ([4]; fresh medium acidified with HCl, pH 6.0): did not change their form; back-formation of megamitochondria ([4]; fresh medium acidified with HCl, pH 7.0): formed back to a tubular network
[Na+].[OH-] [NaOH]						back-formation of megamitochondria ([4]; 1.3 mM NaOH added into the acidic medium): did not lead to the back-formation of megamitochondria; also recorded: did not lead to the back formation of megamitochondria; back-formation of megamitochondria ([4]; 2.0 mM NaOH added into the acidic medium): resulted in a change in mitochondrial morphology from spherical forms to tubules and network-like structures; also recorded: sufficient to induce the back-formation of megamitochondria
C=C1[C@@H](C)[C@H]2[C@H](Cc3ccccc3)NC(=O)[C@]23OC(=O)/C=C/[C@H](O)CCC[C@@H](C)C/C=C/[C@H]3[C@@H]1O [cytochalasin B]						effectiveness of drug treatment on actin cytoskeleton (phalloidin staining) (actin cytoskeleton): confirming the effectiveness of drug treatment; back-formation of megamitochondria [1]: severe influence on megamitochondria back-formation; formation of megamitochondria (143B.TK−K7gm cells [2]; [6]): prevented formation of megamitochondria
CC(O)C(=O)O (centres unmarked) [lactic acid]			led to the formation of megamitochondria	led to the formation of megamitochondria	led to the formation of megamitochondria	back-formation of megamitochondria ([4]; fresh medium acidulated with lactic acid, pH 6.8): the spherical mitochondria changed to a tubular network; back-formation of megamitochondria ([4]; fresh medium acidulated with lactic acid, pH 7.0): resulted in the back-formation of megamitochondria
CO[C@@H]1C[C@@H](C[C@H]2CC[C@H](C)[C@H]([C@@H](C)C(=O)O)O2)O[C@]2(O[C@](C)([C@H]3CC[C@@](C)([C@@H]4O[C@@H]([C@H]5O[C@@](O)(CO)[C@H](C)C[C@@H]5C)C[C@@H]4C)O3)C[C@H]2C)[C@@H]1C [nigericin]	comparable to the control cells	inhibited				
COC(=O)Nc1nc2ccc(C(=O)c3cccs3)cc2[nH]1 [nocodazol]						inhibition of tubulin polymerisation (alpha-tubulin staining) (tubulin polymerisation): Complete inhibition of tubulin polymerisation; back-formation of megamitochondria [1]: only minor influence on back-formation of megamitochondria; formation of megamitochondria (143B.TK−K7gm cells [2]; [6]): no influence of the tubulin cytoskeleton on the formation of megamitochondria
CC(O)C(=O)[O-].[Na+] (centres unmarked) [sodium lactate]			not possible	not possible	not possible	back-formation of megamitochondria ([4]; fresh medium with 20-210 mM sodium lactate, pH 7.4): led to the back-formation of megamitochondria in all used concentrations
CC(C)[C@@H]1NC(=O)[C@H](C)OC(=O)[C@@H](C(C)C)NC(=O)[C@@H](C(C)C)OC(=O)[C@H](C(C)C)NC(=O)[C@H](C)OC(=O)[C@@H](C(C)C)NC(=O)[C@@H](C(C)C)OC(=O)[C@H](C(C)C)NC(=O)[C@H](C)OC(=O)[C@@H](C(C)C)NC(=O)[C@@H](C(C)C)OC1=O [valinomycin]	inhibited the back-formation of megamitochondria	led to the formation of megamitochondria with diameters exceeding the control cells				
